Article PMC6366404, “4-(3-Nitrophenyl)thiazol-2-ylhydrazone derivatives as antioxidants and selective hMAO-B inhibitors: synthesis, biological activity and computational analysis” (Journal of Enzyme Inhibition and Medicinal Chemistry, 2019)

Experiments:
[1] = Phosphomolybdenum assay (PhosphoMo), total antioxidant activity; details: concentration at which absorbance was 0.5
Protocol: The total antioxidant activity of the compounds was evaluated by phosphomolybdenum method according to Zengin et al.[35]. The sample solution (0.3 ml) was combined with 3 ml of reagent solution (0.6 M sulphuric acid, 28 mM sodium phosphate, and 4 mM ammonium molybdate) and the absorbance was recorded at 695 nm after 90 min incubation at 95 °C. The EC50, which is the effective concentration at which the absorbance was 0.5, was calculated for each compound and trolox, as a reference drug.

[2] = DPPH radical scavenging activity
Protocol: The radical scavenging effect of the compounds using the 1,1-diphenyl-2-picrylhydrazyl (DPPH) radical was estimated according to Zengin et al.[36]. The sample solution (1 ml) was added to 4 ml of a 0.004% solution of DPPH in methanol. The sample absorbance was recorded at 517 nm after 30 min incubation at room temperature in the dark.
(§1) The scavenging activity of the compounds on the ABTS radical cation [ABTS,2,2′-azino-bis(3-ethylbenzothiazoline)-6-sulphonic acid] was measured according to the method of Zengin et al.[37] with slight modification. Briefly, ABTS^+ was produced directly by reacting a 7 mM ABTS solution with 2.45 mM potassium persulphate and allowing the mixture to incubate for 12–16 h in the dark at room temperature. Prior to initiating the assay, the ABTS solution was diluted with methanol to an absorbance of 0.700 ± 0.02 at 734 nm. The sample solution (1 ml) was added to the ABTS^+ solution (2 ml) and mixed, and the sample absorbance was recorded at 734 nm after 30 min incubation at room temperature. The corresponding IC50 value, which is the effective concentration at which 50% of DPPH/ABTS radicals are scavenged, was calculated for each compound and trolox, as a reference drug.

[3] = ABTS radical cation scavenging activity
Protocol: as §1

[4] = Cupric ion reducing activity (CUPRAC)
Protocol: The cupric ion reducing activity (CUPRAC) was determined according to the method of Zengin et al.[38]. The sample solution (0.5 ml) was added to a premixed reaction mixture containing CuCl2 (1 ml, 10 mM), neocuproine (1 ml, 7.5 mM), and NH4Ac buffer (1 ml, 1 M, pH 7.0). Similarly, a blank was prepared by adding the sample solution (0.5 ml) to a premixed reaction mixture (3 ml) without CuCl2. The absorbances of the sample and blank were subsequently recorded at 450 nm after 30 min incubation at room temperature. The absorbance of the blank was subtracted from that of the sample.
(§2) The FRAP (ferric reducing antioxidant power) assay was carried out as described by Zengin et al.[38]. The sample solution (0.1 ml) was added to the premixed FRAP reagent (2 ml) containing acetate buffer (0.3 M, pH 3.6), 2,4,6-tris(2-pyridyl)-s-triazine (10 mM) in 40 mM HCl, and ferric chloride (20 mM) in a ratio of 10/1/1 (v/v/v). The absorbance of the sample was subsequently recorded at 593 nm after 30 min incubation at room temperature. Both results were expressed as EC50 values, using trolox as a reference drug.

[5] = FRAP (ferric reducing antioxidant power) assay
Protocol: as §2

[6] = Metal chelating activity on ferrous ions; details: ferrozine
Protocol: Metal chelating activity on ferrous ions was evaluated by the method previously described. Briefly, the sample solution (2 ml) was added to FeCl2 solution (0.05 ml, 2 mM). The reaction was initiated by the addition of 5 mM ferrozine (0.2 ml). Similarly, a blank was prepared by adding the sample solution (2 ml) to FeCl2 solution (0.05 ml, 2 mM) and water (0.2 ml) without ferrozine. Then, the sample and blank absorbance were recorded at 562 nm after incubation for 10 min at room temperature. The absorbance of the blank was subtracted from that of the sample. EDTA was used as a positive control and this property was expressed as IC50 value for each compound.

Structure (SMILES): CC(=NNc1nc(-c2cccc([N+](=O)[O-])c2)cs1)c1ccc2c(c1)OCCO2
- melting point: 242 to 244 °C

Structure (SMILES): CC(=NNc1nc(-c2cccc([N+](=O)[O-])c2)cs1)c1cc2ccccc2oc1=O
- melting point: 183 to 185 °C

Structure (SMILES): Cc1c(C)c2c(c(C)c1O)CCC(C)(C(=O)O)O2 (stereo not shown) [Trolox, trolox, reference compound]
- EC50 [1]: 1130 ± 50 µM
- IC50 [2]: 400 ± 10 µM
- IC50 [3]: 660 ± 20 µM
- EC50 [4]: 240 ± 20 µM
- EC50 [5]: 160 ± 10 µM

Structure (SMILES): CC(=NNc1nc(-c2cccc([N+](=O)[O-])c2)cs1)c1ccc([N+](=O)[O-])cc1
- melting point: 258 to 260 °C

Structure (SMILES): CC(=NNc1nc(-c2cccc([N+](=O)[O-])c2)cs1)c1ccc(C(C)=NNc2nc(-c3cccc([N+](=O)[O-])c3)cs2)cc1
- melting point: 283 to 285 °C

Structure (SMILES): O=[N+]([O-])c1cccc(C=NNc2nc(-c3cccc([N+](=O)[O-])c3)cs2)c1
- melting point: 222 to 224 °C

Structure (SMILES): CC(=NNc1nc(-c2cccc([N+](=O)[O-])c2)cs1)c1ccncc1 [Compound 21, 1-(4-(3-Nitrophenyl)thiazol-2-yl)-2-(1-(pyridin-4-yl)ethylidene)hydrazine]
- EC50 [1]: 4480 ± 180 µM
- IC50 [2]: 1340 ± 20 µM
- IC50 [3]: 1040 ± 10 µM
- EC50 [4]: 460 ± 20 µM
- EC50 [5]: 270 ± 10 µM
- IC50 [6]: > 5000 µM

Structure (SMILES): O=[N+]([O-])c1cccc(-c2csc(NN=Cc3cccc4ccccc34)n2)c1 [Compound 28, 1-(Naphthalen-1-ylmethylene)-2-(4-(3-nitrophenyl)thiazol-2-yl)hydrazine]
- EC50 [1]: 4930 ± 830 µM
- IC50 [2]: 1300 ± 10 µM
- IC50 [3]: 1050 ± 10 µM
- EC50 [4]: 510 ± 30 µM
- EC50 [5]: 410 ± 10 µM
- IC50 [6]: > 5000 µM
- melting point: 212 to 214 °C

Structure (SMILES): O=[N+]([O-])c1cccc(-c2csc(NN=Cc3c[nH]c4ccccc34)n2)c1
- melting point: 253 to 255 °C

Structure (SMILES): O=[N+]([O-])c1cccc(-c2csc(NN=Cc3ccccn3)n2)c1 [Compound 16, 1-(4-(3-Nitrophenyl)thiazol-2-yl)-2-(pyridin-2-ylmethylene)hydrazine]
- EC50 [1]: 1130 ± 10 µM
- IC50 [2]: 1320 ± 10 µM
- IC50 [3]: 1060 ± 20 µM
- EC50 [4]: 530 ± 20 µM
- EC50 [5]: 510 ± 20 µM
- IC50 [6]: > 5000 µM

Structure (SMILES): CC(=NNc1nc(-c2cccc([N+](=O)[O-])c2)cs1)c1cccc2ccccc12 [Compound 29, 1-(1-(Naphthalen-1-yl)ethylidene)-2-(4-(3-nitrophenyl)thiazol-2-yl)hydrazine]
- EC50 [1]: 9390 ± 310 µM
- IC50 [2]: 1420 ± 10 µM
- IC50 [3]: 1040 ± 10 µM
- EC50 [4]: 460 ± 10 µM
- EC50 [5]: 530 ± 20 µM
- IC50 [6]: > 5000 µM
- melting point: 226 to 228 °C

Structure (SMILES): CC(=NNc1nc(-c2cccc([N+](=O)[O-])c2)cs1)c1ccc2ccccc2c1
- melting point: 152 to 154 °C

Structure (SMILES): CC(=NNc1nc(-c2cccc([N+](=O)[O-])c2)cs1)c1c[nH]c2ccccc12
- melting point: 209 to 211 °C

Structure (SMILES): O=C(O)CN(CCN(CC(=O)O)CC(=O)O)CC(=O)O [EDTA, reference compound]
- IC50 [6]: 20 ± 1 µM

Structure (SMILES): CC(=NNc1nc(-c2cccc([N+](=O)[O-])c2)cs1)c1cc2ccccc2o1
- melting point: 228 to 230 °C

Structure (SMILES): O=[N+]([O-])c1cccc(-c2csc(NN=Cc3ccccc3)n2)c1 [Compound 7, 1-Benzylidene-2-(4-(3-nitrophenyl)thiazol-2-yl)hydrazine]
- EC50 [1]: 1290 ± 160 µM
- IC50 [2]: 1380 ± 10 µM
- IC50 [3]: 1040 ± 10 µM
- EC50 [4]: 660 ± 10 µM
- EC50 [5]: 660 ± 40 µM
- IC50 [6]: > 5000 µM
- melting point: 193 to 195 °C

Structure (SMILES): O=[N+]([O-])c1cccc(-c2csc(NN=C(c3ccccc3)c3ccccc3)n2)c1
- melting point: 166 to 168 °C

Structure (SMILES): O=[N+]([O-])c1cccc(-c2csc(NN=Cc3ccc4c(c3)OCO4)n2)c1
- melting point: 255 to 256 °C

Structure (SMILES): CC(=NNc1nc(-c2cccc([N+](=O)[O-])c2)cs1)c1cccc([N+](=O)[O-])c1
- melting point: 214 to 216 °C

Structure (SMILES): CC(=NNc1nc(-c2cccc([N+](=O)[O-])c2)cs1)c1ccc(Cl)s1 [Compound 6, 1-(1-(5-Chlorothiophen-2-yl)ethylidene)-2-(4-(3-nitrophenyl)thiazol-2-yl)hydrazine]
- EC50 [1]: 1250 ± 50 µM
- IC50 [2]: 1180 ± 10 µM
- IC50 [3]: 1080 ± 10 µM
- EC50 [4]: 490 ± 10 µM
- EC50 [5]: 620 ± 70 µM
- IC50 [6]: > 5000 µM
- melting point: 227 to 229 °C

Structure (SMILES): O=[N+]([O-])c1cccc(-c2csc(NN=Cc3ccncc3)n2)c1 [Compound 18, 1-(4-(3-Nitrophenyl)thiazol-2-yl)-2-(pyridin-4-ylmethylene)hydrazine]
- EC50 [1]: 4700 ± 970 µM
- IC50 [2]: 1370 ± 10 µM
- IC50 [3]: 1040 ± 10 µM
- EC50 [4]: 580 ± 10 µM
- EC50 [5]: 350 ± 10 µM
- IC50 [6]: > 5000 µM

Structure (SMILES): CC(=NNc1nc(-c2cccc([N+](=O)[O-])c2)cs1)c1cccnc1 [Compound 20, 1-(4-(3-Nitrophenyl)thiazol-2-yl)-2-(1-(pyridin-3-yl)ethylidene)hydrazine]
- EC50 [1]: 1770 ± 70 µM
- IC50 [2]: 1290 ± 10 µM
- IC50 [3]: 1040 ± 10 µM
- EC50 [4]: 420 ± 20 µM
- EC50 [5]: 320 ± 20 µM
- IC50 [6]: > 5000 µM

Structure (SMILES): O=[N+]([O-])c1cccc(-c2csc(NN=Cc3ccccc3[N+](=O)[O-])n2)c1 [Compound 8, 1-(2-Nitrobenzylidene)-2-(4-(3-nitrophenyl)thiazol-2-yl)hydrazine]
- EC50 [1]: 1700 ± 50 µM
- IC50 [2]: 1470 ± 10 µM
- IC50 [3]: 1040 ± 10 µM
- EC50 [4]: 440 ± 20 µM
- EC50 [5]: 470 ± 40 µM
- IC50 [6]: > 5000 µM
- melting point: 228 to 230 °C

Structure (SMILES): CC(=NNc1nc(-c2cccc([N+](=O)[O-])c2)cs1)c1cnccn1 [Compound 22, 1-(4-(3-Nitrophenyl)thiazol-2-yl)-2-(1-(pyrazin-2-yl)ethylidene)hydrazine]
- EC50 [1]: 1280 ± 30 µM
- IC50 [2]: 1340 ± 10 µM
- IC50 [3]: 1040 ± 10 µM
- EC50 [4]: 910 ± 20 µM
- EC50 [5]: 480 ± 40 µM
- IC50 [6]: 3860 ± 290 µM
- melting point: 243 to 245 °C

Structure (SMILES): CCC(=NNc1nc(-c2cccc([N+](=O)[O-])c2)cs1)c1ccccc1
- melting point: 215 to 217 °C

Structure (SMILES): CC(=NNc1nc(-c2cccc([N+](=O)[O-])c2)cs1)c1ccccn1 [Compound 19, 1-(4-(3-Nitrophenyl)thiazol-2-yl)-2-(1-(pyridin-2-yl)ethylidene)hydrazine]
- EC50 [1]: 2640 ± 340 µM
- IC50 [2]: 1360 ± 10 µM
- IC50 [3]: 1040 ± 10 µM
- EC50 [4]: 510 ± 10 µM
- EC50 [5]: 380 ± 20 µM
- IC50 [6]: > 5000 µM
